From US20170128428A1 (priority 2014, published 2017)

Legend:
[1] = system: oxaliplatin-induced neuropathy; conditions: chronic oxaliplatin, study D0 to D28; group O; FIG. 3
Description: (§1) The animals in the control group received an injection of 5% glucose by the same route, at the same frequency and the same volume.
(§2) These tablets were reduced to a fine powder, and placed in suspension in water containing 0.5% carboxymethylcellulose (Sigma Aldrich, France) in order to obtain a solution at 4 mg/ml. […] The animals in the control group simply received an administration of 0.5% carboxymethylcellulose by the same route, at the same volume and the same frequency.
The Von Frey electronic apparatus (Chaplan et al., 1994) includes a portable sleeve made up of an elastic tip connected to a force sensor. The rats are placed in Plexiglas boxes, arranged on a raised grate. After a habituation period of the rats, the tip is applied perpendicularly to the center of the 5 plantar pads of each of rear paw. […] The intensity of the stimulus, the maximum applied pressure (expressed in grams) is recorded by the device upon withdrawal of the paw.
(§3) The trials were conducted over a period of 3 hours, on all 4 groups of rats. The time t0 corresponds to the moment of the injection.

[2] = system: oxaliplatin-induced neuropathy; conditions: chronic oxaliplatin, study D0 to D28; group O; FIG. 4
Description: as §1, §2
The rats' tails are submerged in a cold water bath (10° C.). The immersion is maintained until the animal withdraws its tail. The latency of the withdrawal is clocked. Each measurement is done in triplicate.
as §3

[3] = Park et al. 2011; treatment using oxaliplatin and/or cisplatin; cited from earlier work
[4] = system: oxaliplatin-induced neuropathy; conditions: chronic oxaliplatin, day 31; group O; FIG. 5
Description: as §1, §2
This test takes place in an arena equipped with a camera in which two animals are placed in one another's presence for 10 minutes. The purpose of this test is to measure the interaction time between the animals. The two studied animals are always part of the same experimental condition group to prevent the behavior of one rat from influencing the other. The rats interact with one another by sniffing, grooming, chasing, etc. An increase in interactions indicates a non-anxious state of the rat, while a decrease and tendency toward prostration indicates an anxious state of the animal. At the beginning of the experiment, the animals are placed in opposite corners of the arena and the handler leaves the room. The arena is cleaned between two experiments to prevent the odors from the previous rats from disrupting the results.
A dose of 5 mg/kg was administered to the animals in groups D and O-D 30 minutes before the test.

[5] = system: chemically induced neuropathic pain; conditions: Kautio et al. 2008; Mitchell et al. 2006; cited from earlier work

| SMILES | sensitivity to mechanical stimulation compared to Sham group [1] | sensitivity to cold stimulation compared to Sham group [2] | affected patients in whom the neuropathy becomes persistent [3] | anxiety level (social interaction time) vs Sham group [4] | relief in patients treated with oxaliplatin [5] |
| --- | --- | --- | --- | --- | --- |
| O=C1[O][Pt-2]2([NH2+]C3CCCC[C@H]3[NH2+]2)[O]C1=O (stereo in doubt) [oxaliplatin, cis-[(1R, 2R)-1,2-cyclohexanediamine-N, N′] [oxaloto (2)-O, O′] platinum] | increased sensitivity to mechanical stimulation | increased sensitivity | approximately 80% | significantly more anxious than the animals in the Sham group | – |
| CN(C)CCC=C1c2ccccc2CCc2ccccc21 [amitriptyline] | – | – | – | – | have not provided any relief |
| NCC1(CC(=O)O)CCCCC1 [gabapentin] | – | – | – | – | have not provided any relief |
